The text below walks through data of US9643951B2, “Compound having somatostatin receptor agonistic activity and pharmaceutical use thereof” (ONO PHARMACEUTICAL CO., LTD., priority 2013, dated 2017).

As a reminder, the EC50 is the concentration giving half of the maximal effect. Low values mean an effect from little substance, high ones a need for much substance.

Series [1] addresses somatostatin receptor subtype 2 (SSTR2) (Homo sapiens, UniProt P30874). To be noted: reported; cited from earlier work.
Series [2] deals with somatostatin receptor subtype 3 (SSTR3) (Homo sapiens, UniProt P32745). The note with it: reported; cited from earlier work.
For series [3], the target named is somatostatin receptor subtype 1 (SSTR1) (Homo sapiens, UniProt P30872). To be noted: reported; cited from earlier work.
In series [4] the target is somatostatin receptor subtype 4 (SSTR4) (Homo sapiens, UniProt P31391). To be noted: reported; cited from earlier work.
Series [5] relates to growth hormone (GH) secretion. The experiment in a line: Evaluation of suppression of growth hormone (GH) secretion using rats (GHRH-induced). Format: in vivo. Here is the method:
Evaluation of Suppression of Growth Hormone (GH) Secretion Using Rats
[Procedure (A): Administration of a Test Compound 30 Minutes Beforehand]
A medium (distilled water (Otsuka distilled water, Otsuka Pharmaceutical Factory, […]) IGS rats (Charles River Laboratories Japan, Inc.)) and after 27 minutes, the animals were administered with 50 mg/kg of pentobarbital sodium (Somnopentyl, Kyoritsu Seiyaku Corporation) via the tail vein for anaesthesia. Three minutes after administration of pentobarbital sodium, the rats were administered with 0.01 mg/kg of growth hormone-releasing hormone (GHRH, Bachem) via the tail vein to induce GH secretion. In order to measure the blood GH concentration, 0.2 mL of blood was collected through the jugular vein at 5 minutes after administration of GHRH. The collected blood was centrifuged at 4° C., 13,000×g for 5 minutes to obtain plasma. The blood GH concentration was measured by using Rat/Mouse Growth Hormone ELISA (Millipore) following the instruction of the kit. The percentage (%) of suppression of GH secretion was determined by using the obtained blood GH concentration and the equation {[suppression (%) of GH secretion]=([blood GH concentration of the group administered with the medium]−[blood GH concentration of the group administered with a test compound])/[blood GH concentration of the group administered with the medium]×100}. In the equation, the group administered with the medium represents the group of animals administered with the medium and the group administered with a test compound represents the group of animals administered with a test compound dissolved in the medium.
[Procedure (B): Administration of a Test Compound 8 Hours Beforehand]
A medium (distilled water (Otsuka distilled water, Otsuka Pharmaceutical Factory, […]) IGS rats (Charles River Laboratories Japan, Inc.)) and after 7 hours and 57 minutes, the animals were administered with 50 mg/kg of pentobarbital sodium (Somnopentyl, Kyoritsu Seiyaku Corporation) via the tail vein for anaesthesia. Three minutes after administration of pentobarbital sodium, the rats were administered with 0.01 mg/kg of growth hormone-releasing hormone (GHRH, Bachem) via the tail vein to induce GH secretion. The rest of the procedure is the same as in [Procedure (A)] described above.

Series [6] deals with gastric acid secretion. Nature of the series: Evaluation of suppression of gastric acid secretion using rats (pyloric ligation). Format: in vivo. To be noted: continuous intravenous administration at 1 mcg (microgram)/kg/h.
The target in series [7] is T1, human SSTR2 (Homo sapiens, UniProt P30874).
T1 construct: Myc; expressed in transfected cells
Nature of the series: Evaluation of SSTR2 agonistic activity using cells expressing human SSTR2 (suppression of forskolin-stimulated cAMP production, SSTR2-CHO-K1). Type of series: cell-based. Here is the method: Evaluation of SSTR2 Agonistic Activity Using Cells Expressing Human SSTR2
(1) Isolation of Human SSTR2 Gene
Human brain cDNA was purchased from Ambion (catalogue No.: 7962; Lot No.: 040200121). PCR primers, hSSTR2_F1_XhoI: 5′-[…]-3′ (SEQ ID NO: 1) and hSSTR2_R1_EcoRI: 5′-[…]-3′ (SEQ ID NO: 2) were designed on the basis of the sequence GenBank NM_001050.
PCR reaction (95° C. for 2 min.→[98° C. for 10 sec., 60° C. for 30 sec. and 68° C. for 90 sec.]×30 cycles) was carried out using the human brain cDNA as a template and using KOD-plus-(TOYOBO Co., Ltd.). The amplified PCR product was subjected to 1% agarose gel electrophoresis, purified using QIAquick Gel Extraction Kit (QIAGEN) and digested with restriction enzymes XhoI and EcoRI. The digested fragments were ligated to an expression vector (pIRESneo-Myc) using the DNA Ligation Kit Ver. 2 (Takara) and used for transformation of E. coli DH5a. The plasmid pIRESneo-Myc/hSSTR2 was prepared and the DNA sequence thereof was confirmed.
(2) Culture of CHO-K1 Cells
CHO-K1 (−) was cultured in Ham's F-12 medium (containing foetal bovine serum (10%), penicillin (100 U/mL) and streptomycin (0.1 mg/mL)). The transduced cells were cultured in the same medium supplemented with Geneticin (1 mg/mL).
(3) Transduction of CHO-K1 Cells
CHO-K1(−) cells were transduced with the plasmid pIRESneo-Myc/hSSTR2 using Lipofectamine 2000 (Invitrogen). After 48 hours, selection was carried out by replacing the medium with the one containing 1 mg/mL of Geneticin to establish a stable overexpressing cell line (SSTR2-CHO-K1).
(4) Evaluation of SSTR2 Agonistic Activity
The human SSTR2 agonistic activity of a test compound was evaluated according to the following procedures by using a suppression activity of intracellular cyclic AMP (cAMP) production by forskolin stimulation as an index. SSTR2-CHO-K1 cells suspended in Ham's F-12 medium (containing foetal bovine serum (10%), penicillin (100 U/mL) and streptomycin (0.1 mg/mL)) supplemented with 0.25 mg/mL of Geneticin were inoculated into a 96-well plate at a density of 4.0×10^4 cells/0.1 mL per well. On the next day, the medium was removed and washed twice with 0.1 mL of wash buffer [0.1% bovine serum albumin (BSA), 20 mmol/L 4-(2-hydroxyethyl)-1-piperazineethane sulphonic acid (HEPES)-containing Hank's balanced salt solution (HBSS)]. An assay buffer [[…] 3-isobutyl-1-methylxanthine (IBMX), 0.1% BSA, 20 mmol/L HEPES-containing HBSS] was added to the wells at 0.06 mL per well and the plate was incubated for 15 minutes under the conditions of 5% carbon dioxide and 37° C. Thereafter, an assay buffer containing a test compound at a concentration twice as high as the final concentration and 0.02 mmol/L of forskolin was added to wells at 0.06 mL per well and the plate was incubated for 30 minutes under the conditions of 5% carbon dioxide and 37° C. Thereafter, the Assay/Lysis buffer included in the cAMP-Screen® kit (available from Applied Biosystems) was added to wells at 0.12 mL per well and the plate was incubated for 30 minutes under the conditions of 5% carbon dioxide and 37° C. The concentration of cAMP in samples were measured by ELISA according to the instruction of the kit.
A general note: Changes in cAMP serve as a functional read-out for many G protein-coupled receptors.

Series [8] can be described thus: Evaluation of cytotoxicity using cultured human hepatocytes (intracellular ATP). Format: cell-based. The note with it: read-out: IC50 of cytotoxicity (concentration at which 50% of the luminescence is suppressed). The procedure: Evaluation of Cytotoxicity Using Cultured Human Hepatocytes
Frozen adhesive human hepatocytes were thawed, suspended in a hepatocellular medium (HCM) purchased from Lonza and inoculated to a 96-well plate coated with collagen. The culture medium of the hepatocytes cultured overnight in an incubator (5% carbon dioxide, 95% air, 37° C.) was exchanged to the medium containing a test compound at a concentration of 0, 12.5, 25, 50, 100, 200 or 400 (×10^−6 mol/L) and the cells were further cultured for 24 hours. Cytotoxicity was evaluated by measuring the intracellular ATP concentration. Specifically, using the Promega Celltiter-Glo luminescent assay kit available from Promega, cells were lysed in the assay buffer included in the kit and the concentration of ATP released from the cells was measured according to the luminescence resulting from luciferin-luciferase enzyme activity. The luminescence was measured on the SpectraMax plate reader from Molecular Devices. The extent of cytotoxicity of a test compound is represented by the concentration (IC50) of the compound at which 50% of the luminescence is suppressed.

A short description of series [9]: Human hepatic microsome stability test. Format: in vitro ADME. To be noted: human hepatic microsomes 1 mg/mL; 60 minutes; test compound 0.001 mmol/L; 37° C. Here is the method: Human Hepatic Microsome Stability Test
To a reaction vessel heated to 37° C. in a water bath, 0.392 mL of phosphate buffer (0.1 mol/L, pH 7.4) containing human hepatic microsomes (1 mg/mL, Xenotech) and NADPH-Co-factor (NADP+1.3 mmol/L, BD-Bioscience) was added and pre-incubated for 5 minutes. A 50% acetonitrile solution (0.008 mL) containing 0.05 mmol/L of a test compound was added thereto to initiate the enzyme reaction (final concentration of the test compound: 0.001 mmol/L). Immediately after initiation of the reaction and at 60 minutes thereafter, 0.050 mL of the reaction solution was respectively collected, which was immediately added to an acetonitrile solution (0.2 mL) containing an internal standard (45 nmol/L, 1-[3-(3,5-dimethylphenyl)-4-quinolinyl]-4-piperidineamine) to terminate the enzyme reaction.
The residual rate (%), which is indicative of stability of the test compound, was calculated using the ratio of peak areas between the test compound and the internal substance determined by LC/MS/MS (TSQ Quantum Discovery MAX, Thermo) analysis of the sample thus prepared by the above procedures followed by filtration, and the equation: {[residual rate (%)=[peak area of a test compound in a sample at 60 minutes after initiation of the reaction/peak area of the internal standard]/[peak area of the test compound in the sample immediately after initiation of the reaction/peak area of the internal standard]×100}.

Setting [10] is: Rattus norvegicus, Procedure (B): oral administration 8 hours beforehand, read-out: percentage of suppression of GH secretion.

Each structure is given as a SMILES string.

T1 sequence (P30874 whole entry): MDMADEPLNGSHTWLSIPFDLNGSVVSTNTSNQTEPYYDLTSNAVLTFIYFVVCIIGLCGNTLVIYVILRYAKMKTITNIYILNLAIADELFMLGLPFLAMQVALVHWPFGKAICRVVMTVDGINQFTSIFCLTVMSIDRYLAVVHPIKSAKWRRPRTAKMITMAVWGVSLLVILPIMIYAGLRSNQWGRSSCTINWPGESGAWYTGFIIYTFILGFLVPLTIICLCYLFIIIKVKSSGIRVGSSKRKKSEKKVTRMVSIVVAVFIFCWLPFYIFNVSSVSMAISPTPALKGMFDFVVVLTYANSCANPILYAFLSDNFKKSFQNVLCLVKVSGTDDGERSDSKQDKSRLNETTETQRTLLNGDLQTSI
Chain of somatostatin receptor subtype 1 (SSTR1) (P30872 whole entry, species assumed): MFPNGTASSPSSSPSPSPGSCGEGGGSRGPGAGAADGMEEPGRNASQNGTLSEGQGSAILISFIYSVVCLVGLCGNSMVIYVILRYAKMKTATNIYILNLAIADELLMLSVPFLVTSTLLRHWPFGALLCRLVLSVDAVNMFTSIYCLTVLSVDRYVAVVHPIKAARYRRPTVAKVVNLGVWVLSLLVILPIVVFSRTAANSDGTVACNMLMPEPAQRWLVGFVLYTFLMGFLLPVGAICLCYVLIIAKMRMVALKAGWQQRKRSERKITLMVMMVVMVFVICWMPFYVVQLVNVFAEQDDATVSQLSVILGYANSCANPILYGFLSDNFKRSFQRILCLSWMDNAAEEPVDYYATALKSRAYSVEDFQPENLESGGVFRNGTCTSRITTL
Chain of somatostatin receptor subtype 2 (SSTR2) (P30874 whole entry, species assumed): as the sequence (P30874 whole entry) above
Chain of somatostatin receptor subtype 3 (SSTR3) (P32745 whole entry, species assumed): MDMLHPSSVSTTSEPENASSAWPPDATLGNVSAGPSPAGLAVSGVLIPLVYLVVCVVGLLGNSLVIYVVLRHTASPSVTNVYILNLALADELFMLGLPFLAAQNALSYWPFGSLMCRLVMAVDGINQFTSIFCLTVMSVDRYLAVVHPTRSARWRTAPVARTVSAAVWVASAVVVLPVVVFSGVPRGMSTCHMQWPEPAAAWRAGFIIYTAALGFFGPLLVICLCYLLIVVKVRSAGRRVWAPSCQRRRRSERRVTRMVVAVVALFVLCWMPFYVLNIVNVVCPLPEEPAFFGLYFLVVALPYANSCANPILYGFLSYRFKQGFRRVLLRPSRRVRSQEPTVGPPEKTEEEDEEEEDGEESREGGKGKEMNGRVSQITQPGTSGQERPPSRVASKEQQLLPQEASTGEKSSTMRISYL
Chain of somatostatin receptor subtype 4 (SSTR4) (P31391 whole entry, species assumed): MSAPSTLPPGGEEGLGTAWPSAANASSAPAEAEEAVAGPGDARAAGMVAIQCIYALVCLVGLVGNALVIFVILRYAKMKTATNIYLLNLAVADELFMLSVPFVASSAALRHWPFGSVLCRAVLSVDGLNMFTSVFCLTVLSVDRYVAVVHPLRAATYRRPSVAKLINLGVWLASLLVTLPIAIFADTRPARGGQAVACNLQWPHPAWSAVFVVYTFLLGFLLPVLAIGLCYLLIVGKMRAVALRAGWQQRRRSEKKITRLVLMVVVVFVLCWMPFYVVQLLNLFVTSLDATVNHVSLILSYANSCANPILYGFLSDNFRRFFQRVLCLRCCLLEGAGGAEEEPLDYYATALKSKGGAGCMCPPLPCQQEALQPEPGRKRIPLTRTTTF

As for `CC(C)[C@@H]1NC(=O)[C@H](CCCCN)NC(=O)[C@@H](Cc2c[nH]c3ccccc23)NC(=O)[C@H](Cc2ccc(O)cc2)NC(=O)[C@@H](NC(=O)[C@H](N)Cc2ccc3ccccc3c2)CSSC[C@@H](C(=O)N[C@H](C(N)=O)[C@@H](C)O)NC1=O` [lanreotide acetate], the “binding affinity to SSTR2” value in series [1] is “high affinity”. Besides, the “binding affinity to SSTR3” value in series [2] is given as “moderate affinity”. Besides, the “binding to SSTR1” value in series [3] is listed as “do not bind”. Besides, in series [4], the “binding to SSTR4” value is recorded as “do not bind”.

`C[C@@H](O)[C@@H]1NC(=O)[C@H](CCCCN)NC(=O)[C@@H](Cc2c[nH]c3ccccc23)NC(=O)[C@H](Cc2ccccc2)NC(=O)[C@@H](NC(=O)[C@H](N)Cc2ccccc2)CSSC[C@@H](C(=O)N[C@H](CO)[C@@H](C)O)NC1=O` [octreotide, reference compound]: the “suppression of GH secretion” value in series [5] (Procedure (A): 30 minutes beforehand, 0.003 mg/kg by subcutaneous administration) came out at 98%. For the same compound, the “percentage of suppression of gastric acid secretion” value in series [6] came to 39%.

Compound `N#CC1(c2ccc(-c3cncc(-c4cc(Cl)cc(Cl)c4)c3N3CCC(N)CC3)cc2)CC1` [Example 2(2), 1-{4-[4-(4-amino-1-piperidinyl)-5-(3,5-dichlorophenyl)-3-pyridinyl]phenyl}cyclopropanecarbonitrile] came in with an EC50 in [7] of 0.013 nM. Further, in series [5] (setting [10]), the inhibition in vivo at 1 mg/kg is 93%. In addition, the IC50 at 24 h in series [8] was found to be 11 µM. Moreover, in [9], the residual rate is reported as 100.0%.

In series [7], `NC1CCN(c2c(-c3ccc(C(F)(F)F)cc3)cncc2-c2cc(F)cc(Cl)c2)CC1` [Example 2, 1-{3-(3-chloro-5-fluorophenyl)-5-[4-(trifluoromethyl)phenyl]-4-pyridinyl}-4-piperidineamine] came in with an EC50 of 0.083 nM. In addition, in [5] (setting [10]), the inhibition in vivo at 1 mg/kg came out at 93%. Moreover, the IC50 at 24 h in series [8] amounted to 10 µM. The compound further registered a residual rate in series [9] of 88.0%.

As for `CC(C)(C#N)c1ccc(-c2cncc(-c3cc(Cl)cc(Cl)c3)c2N2CCC(N)CC2)cc1` [Example 2(4), 2-{4-[4-(4-amino-1-piperidinyl)-5-(3,5-dichlorophenyl)-3-pyridinyl]phenyl}-2-methylpropanenitrile], a half-maximal effect in series [7] (EC50) was put at 0.024 nM. Besides, in series [5] (setting [10]), the inhibition in vivo at 1 mg/kg worked out at 88%. For the same compound, in series [8], the IC50 at 24 h was 13 µM. Also, the residual rate in [9] came to 94.0%.

Regarding `COc1ccc(F)cc1C(=O)Nc1cncc(-c2cc(Cl)cc(Cl)c2)c1N1CCC(N)CC1` [Example 7(1), N-[4-(4-amino-1-piperidinyl)-5-(3,5-dichlorophenyl)-3-pyridinyl]-5-fluoro-2-methoxybenzamide], in series [7], a half-maximal response (EC50) required 0.26 nM. Moreover, the inhibition in vivo at 3 mg/kg in [5] (Rattus norvegicus, Procedure (B): oral administration 8 hours beforehand, 3 mg/kg, read-out: percentage of suppression of GH secretion) is 88%. Moreover, in series [8], the IC50 at 24 h came out at 34 µM. Further, the residual rate in series [9] amounted to 92.9%.
